Laboratory results: paper PMC10977697 (PLOS ONE, 2024)
Where a SMILES comes first, the peptide text is derived from it. Bridges are numbered along the chain shown (N, C = ends). Where no end group is shown, it is not given here.

Tests used:
Notch2Long = assay: Spot phage ELISA, Notch2Long; assay type: binding, human; settings: for ELISA: spot phage ELISA signal
Her3-Fc = biological target: T1, Her3-Fc (Homo sapiens, UniProt P21860); assay: Spot phage ELISA, Her3-Fc; assay type: binding; settings: for S/N: ratio of signal for target protein over BSA background; for ELISA: spot phage ELISA signal, DCP displayed on M13 p8
T1 construct: purchased R&D 348-RB

HGFA = assay: Spot phage ELISA, HGFA; assay type: binding, human; settings: for S/N: ratio of signal for target protein over BSA background, S/N > 2 positive; for ELISA: spot phage ELISA signal, DCP displayed on M13 p8, phage supernatant 1:3 in PBT, anti-M13-HRP, TMB
CD28-Fc = assay: Spot phage ELISA, CD28-Fc; assay type: binding; settings: for ELISA: spot phage ELISA signal of phage-displayed DCP clone on CD28-Fc; for S/N: spot phage ELISA signal-to-noise on CD28-Fc
R-spondin = assay: Spot phage ELISA, R-spondin; assay type: binding, human; settings: for S/N: ratio of signal for target protein over BSA background; for ELISA: spot phage ELISA signal, DCP displayed on M13 p8
trypsin = assay: Phage ELISA of displayed DCPs on immobilized trypsin; settings: DCP displayed on M13 p3 or p8, phage ELISA on trypsin-coated plates (Fig 1)
Description: The DCPs, incorporating an N-terminal gD-tag for quantification of display levels, were fused at the C-terminal to the major M13 coat protein p8 or the C-terminal domain of minor coat protein p3 (Fig 1A).
The display level was analyzed using phage ELISA described previously [47].

T1 sequence (P21860 20-643 limits assumed): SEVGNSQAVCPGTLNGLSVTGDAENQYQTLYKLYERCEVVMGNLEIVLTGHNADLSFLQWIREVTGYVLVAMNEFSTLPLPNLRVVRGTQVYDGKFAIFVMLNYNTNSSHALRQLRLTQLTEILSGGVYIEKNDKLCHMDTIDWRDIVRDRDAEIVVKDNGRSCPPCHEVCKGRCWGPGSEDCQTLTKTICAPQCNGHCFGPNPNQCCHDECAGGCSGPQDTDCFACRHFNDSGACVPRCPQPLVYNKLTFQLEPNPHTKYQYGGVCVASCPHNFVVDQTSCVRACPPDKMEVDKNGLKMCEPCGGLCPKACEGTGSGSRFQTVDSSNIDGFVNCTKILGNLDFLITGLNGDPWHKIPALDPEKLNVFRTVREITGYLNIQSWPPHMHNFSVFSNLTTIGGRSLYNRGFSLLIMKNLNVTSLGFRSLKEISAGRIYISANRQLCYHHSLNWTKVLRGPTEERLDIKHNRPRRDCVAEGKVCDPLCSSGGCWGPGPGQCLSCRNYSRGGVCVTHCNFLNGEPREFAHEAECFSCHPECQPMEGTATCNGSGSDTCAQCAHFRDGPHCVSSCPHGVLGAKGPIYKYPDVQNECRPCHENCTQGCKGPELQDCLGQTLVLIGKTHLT

Molecule	S/N (Her3-Fc)	ELISA (CD28-Fc)	S/N (CD28-Fc)	further results
CC[C@H](C)[C@@H]1NC(=O)[C@@H]2CCCN2C(=O)[C@H](CCC(=O)O)NC(=O)[C@@H]2CSSC[C@@H]3NC(=O)[C@H](Cc4c[nH]cn4)NC(=O)[C@H](Cc4c[nH]c5ccccc45)NC(=O)[C@H](CC(C)C)NC(=O)[C@H]([C@@H](C)O)NC(=O)[C@H](Cc4c[nH]c5ccccc45)NC(=O)CNC(=O)[C@@H](NC(=O)CN)CSSC[C@H](NC(=O)CNC(=O)[C@H](C)NC(=O)[C@H](CC(C)C)NC(=O)[C@H](CSSC[C@@H](C(=O)NCC(=O)O)NC(=O)[C@H](Cc4c[nH]c5ccccc45)NC(=O)[C@H](Cc4c[nH]c5ccccc45)NC1=O)NC(=O)[C@H](CC(=O)O)NC(=O)[C@H](CO)NC(=O)[C@H](CC(=O)O)NC(=O)[C@H](CCC(N)=O)NC(=O)[C@H](CCCCN)NC3=O)C(=O)N[C@@H](C(C)C)C(=O)N2 [N2L-EET-03] (HELM PEPTIDE1{G.C.G.W.T.L.W.H.C.K.Q.D.S.D.C.L.A.G.C.V.C.E.P.I.W.W.C.G}$PEPTIDE1,PEPTIDE1,2:R3-19:R3|PEPTIDE1,PEPTIDE1,9:R3-21:R3|PEPTIDE1,PEPTIDE1,15:R3-27:R3$$$V2.0; N-terminus and C-terminus assumed)				s/n ratio (Notch2Long; Table 3, affinity maturation clones, signal over BSA background): 3.1; ELISA (Notch2Long; Table 3, affinity maturation clones, display (p8 or p3) not given per clone): 0.4; S/N (Notch2Long; initial hits, ratio of signal for target protein over BSA background): 3.1; ELISA (Notch2Long; initial hits, DCP displayed on M13 p8): 0.35
AFDCLGQCVPYVLSPYCNSSCTR [Her3-Fc AVR9 6]	24.2			ELISA (Her3-Fc): 1.56
GCAESQHWWLWGCKQDSDCLAGCVCGPNGFCG (also: bicyclic or more (positions not given here)) [HGFA EET I-II 31]				S/N (HGFA): 22.4; ELISA (HGFA): 1.95
GCALSIHWWLWPCKQDSDCLAGCVCGPNGFCG (also: bicyclic or more (positions not given here)) [HGFA EET I-II 20]				S/N (HGFA): 13.5; ELISA (HGFA): 1.93
GCDEYWYECKQDSDCLAGCVCLIWGHCG (disulfide (positions not given here)) [CD28-Fc EET I-II 7]		1.32	20.3	
GCDLDLDWIWHECKQDSDCLAGCVCHQGNFCG (also: bicyclic or more (positions not given here)) [Her3-Fc EET I-II 9]	25.7			ELISA (Her3-Fc): 1.44
GCDPWIWQEWGVCKQDSDCLAGCVCGPNGFCG (also: bicyclic or more (positions not given here)) [R-spondin EETI-II 47]				S/N (R-spondin): 13.7; ELISA (R-spondin): 1.06
GCEWDWWFDQWICKQDSDCLAGCVCGPNGFCG (also: bicyclic or more (positions not given here)) [HGFA EET I-II 16]				S/N (HGFA): 14.5; ELISA (HGFA): 1.92
GCFENWATCKQDSDCLAGCVCKIWKRCG (disulfide (positions not given here)) [CD28-Fc EET I-II 5]		1.34	19.6	
GCFWKRVHLCKQDSDCLAGCVCGWEASCG (disulfide (positions not given here)) [CD28-Fc EET I-II 15]		1.64	31.6	
GCHPDPWWCKQDSDCLARWCG [Her3-Fc EET I-II 37]	43.4			ELISA (Her3-Fc): 3.17
GCHYNWDQCKQDSDCLAGCVCLIWYRCD (disulfide (positions not given here)) [CD28-Fc EET I-II 12]		1.06	20.1	
GCISKWFSCKQDSDCLAGCVCLLWQDCG (also: bicyclic or more (positions not given here)) [Her3-Fc EET I-II 67]	20.1			ELISA (Her3-Fc): 1.54
GCIWGWAACKQDSDCLAGCVCQIWGRCG (disulfide (positions not given here)) [CD28-Fc EET I-II 3]		1.58	10.7	
GCLASHPWWSVWCKQDSDCLAGCVCQEMGICG (also: bicyclic or more (positions not given here)) [R-spondin EETI-II 31]				S/N (R-spondin): 11.4; ELISA (R-spondin): 0.72
GCMEHWEYCKQDSDCLAGCVCVIWGRCG (disulfide (positions not given here)) [CD28-Fc EET I-II 13]		1.52	27.2	
GCMMYWDECKQDSDCLAGCVCLIWNRCG (disulfide (positions not given here)) [CD28-Fc EET I-II 4]		1.85	34.2	
GCMNWGTFCKQDSDCLAGCVCALFGVCG (also: bicyclic or more (positions not given here)) [Her3-Fc EET I-II 66]	27.8			ELISA (Her3-Fc): 1.59
GCMWDWDACKQDSDCLAGCVCSIWGRCG (disulfide (positions not given here)) [CD28-Fc EET I-II 2]		1.29	10.9	
GCMYHWEACKQDSDCLAGCICHIWIPCG (disulfide (positions not given here)) [CD28-Fc EET I-II 8]		1.07	16.4	
GCPRILIRCKQDSDCLAGCVCSGPPPCG (also: bicyclic or more (positions not given here)) [Her3-Fc EET I-II 47]	22.4			ELISA (Her3-Fc): 1.64

Molecule	S/N (Her3-Fc)	ELISA (CD28-Fc)	S/N (CD28-Fc)	further results
GCPRILKRCKRDSDCLAGCVCRGNGFCG (also: bicyclic or more (positions not given here)) [EETI-mut]				phage binding to immobilized trypsin (trypsin): significantly disrupted
GCPRILMRCKQDSDCLAGCVCAGPPPCG (also: bicyclic or more (positions not given here)) [Her3-Fc EET I-II 42]	23.8			ELISA (Her3-Fc): 1.52
GCPRILMRCKQDSDCLAGCVCSGPPPCG (also: bicyclic or more (positions not given here)) [Her3-Fc EET I-II 7]	24.5			ELISA (Her3-Fc): 1.60
GCPRILMRCKQDSDCLSGCVCSGPPPCG (also: bicyclic or more (positions not given here)) [Her3-Fc EET I-II 24]	16.6			ELISA (Her3-Fc): 1.61
GCQLHYSQQGCKQYSULSGLVLWYTIHRLLRWRI [Her3-Fc EET I-II 4]	21.1			ELISA (Her3-Fc): 1.45
GCQSHYSHQGCKQDSDCLAGYCG [Her3-Fc EET I-II 11]	26.1			ELISA (Her3-Fc): 1.65
GCQWDWWMEEWWCKQDSDCLAGCVCGPNGFCG (also: bicyclic or more (positions not given here)) [HGFA EET I-II 14]				S/N (HGFA): 15.2; ELISA (HGFA): 1.75
GCQWIAHWWLWDCKQDSDCLAGCVCGPNGFCG (also: bicyclic or more (positions not given here)) [HGFA EET I-II 86]				S/N (HGFA): 22.6; ELISA (HGFA): 1.92
GCTQDWKTCKQDSDCLAGCVCVIWGRCG (disulfide (positions not given here)) [CD28-Fc EET I-II 6]		1.44	21.2	
GCVWNWVECKQDSDCLAGCVCYIWGRCG (disulfide (positions not given here)) [CD28-Fc EET I-II 1]		1.59	15.4	
GCWEKRKMCKQDSDCLAGCVCGWEISCG (disulfide (positions not given here)) [CD28-Fc EET I-II 14]		1.35	22.9	
GCWSSEKGLACKQDSDCLAGCVCDQTGSCG (also: bicyclic or more (positions not given here)) [Her3-Fc EET I-II 52]	23.0			ELISA (Her3-Fc): 1.65
GCYLKRRHCKQDSDCLAGCVCGWEHTCG (disulfide (positions not given here)) [CD28-Fc EET I-II 9]		1.52	23.4	
GCYQKRVQCKQDSDCLAGCVCGWEAQCG (disulfide (positions not given here)) [CD28-Fc EET I-II 10]		1.41	15.0	
GCYTFWHKCKQDSDCLAGCVCLIWGRCG (disulfide (positions not given here)) [CD28-Fc EET I-II 11]		1.50	19.0	
GCYWDSWFDEWVCKQDSDCLAGCVCGPNGFCG (also: bicyclic or more (positions not given here)) [HGFA EET I-II 59]				S/N (HGFA): 13.4; ELISA (HGFA): 1.67
GCYWKRQFKCKQDSYCLPGCVCGWEMSCG (disulfide (positions not given here)) [CD28-Fc EET I-II 16]		1.80	8.4	
GLPVCGETCVGGTCNTPGCTCSWPVCTRN (also: bicyclic or more (positions not given here)) [kalata B1]				phage binding to immobilized trypsin (trypsin): did not exhibit any binding signal
GPSHSQYCHCGGIGYVGGHYCSCTNYQDEWGFESRCLPGAS [HGFA CBD 9]				S/N (HGFA): 25.0; ELISA (HGFA): 1.80
GPTQSWQGRCGGIGYSGPTVCASGTTCQVLTPYWSECLPGAS (disulfide 10-27, 21-37 (inferred)) [Her3-Fc_CBD1]	20.2			ELISA (Her3-Fc; listed as Her3-Fc CBD 3): 1.65
SGSDGGVCPKILKKCRRDSDCPGACICRGNGYCG (also: bicyclic or more (positions not given here)) [MCoTI-II]				phage binding to immobilized trypsin (trypsin): showed binding signals
